Drawing on patent US20250066358A1, “Inhibitors of Menin-MLL Interaction” (Bala Therapeutics, Inc., priority 2021, published 2025), this text covers EC50 and CC50 for 19 compounds.

As usually defined, the pEC50 is the EC50 on a negative log10 scale, so that one unit is a factor of ten. What is called CC50 is the concentration giving 50% cytotoxicity. A low value points to greater toxicity to the cells.

For data set [1], the target named is T1, recombinant MEN1 protein and fluorescein-labeled MLL4-43 peptide (Homo sapiens, UniProt O00255).
T1 construct: purchased Creativebiomart MEN1-35H
T1 sequence (O00255 1-610): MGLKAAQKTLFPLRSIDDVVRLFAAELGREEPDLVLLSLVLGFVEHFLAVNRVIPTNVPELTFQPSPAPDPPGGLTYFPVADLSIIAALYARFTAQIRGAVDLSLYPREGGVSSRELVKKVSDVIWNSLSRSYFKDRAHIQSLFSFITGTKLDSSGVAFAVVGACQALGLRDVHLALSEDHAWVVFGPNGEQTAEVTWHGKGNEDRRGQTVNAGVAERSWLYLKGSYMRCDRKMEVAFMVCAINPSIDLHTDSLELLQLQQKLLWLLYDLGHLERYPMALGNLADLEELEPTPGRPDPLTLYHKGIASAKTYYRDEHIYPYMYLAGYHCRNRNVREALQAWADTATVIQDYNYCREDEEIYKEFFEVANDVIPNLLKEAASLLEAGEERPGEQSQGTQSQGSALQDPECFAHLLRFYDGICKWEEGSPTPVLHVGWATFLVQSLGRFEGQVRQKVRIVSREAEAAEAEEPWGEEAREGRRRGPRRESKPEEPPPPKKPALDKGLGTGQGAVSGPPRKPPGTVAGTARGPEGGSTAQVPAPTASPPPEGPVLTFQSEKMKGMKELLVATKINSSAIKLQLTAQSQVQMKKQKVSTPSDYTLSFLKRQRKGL
Kind of data set: Primary fluorescence polarization assay of MEN1 / MLL4-43 interaction inhibition. The class given is binding. Particulars: MEN1 10 nM, MLL4-43 0.5 nM, 1 hour at room temperature. How it is done:
Compound activity was determined using recombinant MEN1 protein (Creativebiomart, Cat #MEN1-35H) and a custom fluorescein-labeled MLL4-43 peptide (Eton Bioscience Inc.). Interaction between MEN1 and MLL4-43 in the presence of compounds was determined by fluorescence polarization assay using a Microplate Reader ClarioStar Plus. The reaction was carried out in assay buffer (50 mM TRIS-HCl PH 7.4-7.6, 50 mM NaCl, 1 mM DTT, 0.1 mg/ml BSA). The compounds were dispensed on a 384 well Diamond Well Plate (Axigen, Cat #P-384-120 SQ-C—S) using the Biomek FX liquid handling system at 100× solutions of compounds in DMSO. 2× MEN1 mix (final concentration of MEN1 10 nM) was prepared in Assay buffer and 10 μl of mixture per well was added into 384w white Reaction plate with NBS(Corning, Cat #4513). 10 μl of Assay buffer w/o MENI was used for negative control. Plates were centrifuged for 1 min at 100 g. Next step the Compounds were added to Reaction plate using Biomek station via following steps: 3 μl of 100× compounds (in DMSO) were mixed thoroughly with 27 μl Assay Buffer, then 2 μl of this mixture was added to Reaction plate with 10 μl of MENI mix. Plates were centrifuged for 1 min at 100 g and incubated for 20 min at room temperature. Next 8 μL of MLL4-43 peptide per well was added to final concentration of MLL 0.5 nM. Plates were incubated for 1 hour at room temperature. Then fluorescence polarization was measured using Microplate Reader.

The test system of a further data set is MV4-11. The data set can be described thus: MV4-11 Cellular Growth Inhibition Assay (CellTiter-Glo). The data set is classed as cell-based. The note with it: Homo sapiens, 168 h, MV4-11 cells, 7 days of incubation. The procedure:
(§1) HEK293 (Institute of Cytology Russian Academy of Science), MV4-11 (ATCC, CRL-9591), MOLM-13 (AcceGen, ABC-TC517S) were seeded at a density of 500 cells per well (HEK293) and 2000 cells per well (MV4-11, MOLM-13) in a 384-well clear bottom plate (Greiner Cat #781090) in 45 μl total volume of DMEM (PanEco, Cat #C420, Russia) or RPMI (PanEco, Cat #C330, Russia) with 10% FBS(HyClone Cat #SV30160.03). HEK293 were allowed to adhere overnight at 37° C., 5% CO2. 500× compounds solutions in DMSO (Sigma Cat #D2650) were prepared into Cmpnds plate (Diamond Well Plate, Axigen, Cat #P-384-120 SQ-C—S) and DMSO only control was included. 1 μl of 500× compounds (Cmpnds plate) was added to 49 μl of culture medium into Dilution plate (Diamond Well Plate, Axigen, Cat #P-384-120 SQ-C—S), mixed and then 5 μl of 10× compounds solutions were transferred to cells followed by centrifugation at 100 g for 1 min. Final DMSO concentration was 0.2%. After 3 days of incubation, 10 μl of 1× compounds were added to cells. After 7 days of incubation, 12 μl of CellTiter-Glo (Promega, CAT #G7572) were added to the cells, plate was centrifuged at 100 g for 1 min and luminescence signal was measured using Microplate Reader (CLARIOStar).
On the technique in general: Cellular ATP, detected with luciferase, serves as a proxy for viable cell number.

Data set [2] can be described thus: HEK293 Cellular Growth Inhibition Assay (CellTiter-Glo). The note with it: human, HEK293 cells, 7 days of incubation. The class given is cell-based. How it is done: as §1
Another data set concerns MOLM-13. The data set can be described thus: MOLM-13 Cellular Growth Inhibition Assay (CellTiter-Glo). The class given is cell-based. The note with it: Homo sapiens, 168 h, MOLM-13 cells, 7 days of incubation. How it is done: as §1

Each structure is given as a SMILES string. pEC50: −log10 of the molar value.

In the case of `c1ccc(CCc2ccc3ncnc(N4CC5(CCNCC5)C4)c3c2)cc1` [Compound P148, 4-(2,7-Diazaspiro[3.5]non-2-yl)-6-(2-phenylethyl)quinazoline], the pEC50 in data set [1] is under 5.30.
With `CCS(=O)(=O)N[C@H]1CC[C@H](CN2CCC3(CC2)CCN(c2ncnc4ccc(CC(F)(F)F)cc24)CC3)CC1` [Compound 3, N-((1R,4R)-4-((9-(6-(2,2,2-trifluoroethyl)quinazolin-4-yl)-3,9-diazaspiro[5.5]undecan-3-yl)methyl)cyclohexyl)ethanesulfonamide], the results for the CC50 in the data set with MV4-11 and with MOLM-13 were 5 to 10 µM and 10 to 20 µM, respectively. Further, the CC50 at 7 days in data set [2] was 5 to 15 µM. Further, in data set [1], the negative-log EC50 (pEC50) was 6.00 to 6.30.
As to `CCS(=O)(=O)N1CCc2ccc(CN3CCC4(CC3)CN(c3ncnc5ccc(CC(F)(F)F)cc35)C4)cc2C1` [Compound 111, 4-(7-((2-(ethylsulfonyl)-1,2,3,4-tetrahydroisoquinolin-7-yl)methyl)-2,7-diazaspiro[3.5]nonan-2-y1)-6-(2,2,2-trifluoroethyl)quinazoline], in data set [1], the pEC50 is 5.30 to 6.00.
For the compound `Nc1ccc(CN2CCC3(CC2)CN(c2ncnc4ccc(CC(F)(F)F)cc24)C3)cc1C(=O)NCCN1CCOCC1` [Compound 91, 2-amino-N-(2-morpholinoethyl)-5-((2-(6-(2,2,2-trifluoroethyl)quinazolin-4-yl)-2,7-diazaspiro[3.5]nonan-7-yl)methyl)benzamide], the values for the CC50 in the data set on MV4-11 and in the data set with MOLM-13 were 2.5 to 5 µM and 10 to 20 µM, respectively. The compound also showed a CC50 at 7 days in data set [2] of 5 to 15 µM. Further, the pEC50 in data set [1] is 5.30 to 6.00.
With `CCS(=O)(=O)Nc1ccc(CN2CCC3(CC2)CN(c2ncnc4cc(CC(F)(F)F)ccc24)C3)cc1` [Compound 8, N-(4-((2-(7-(2,2,2-trifluoroethyl)quinazolin-4-yl)-2,7-diazaspiro[3.5]nonan-7-yl)methyl)phenyl)ethanesulfonamide], the CC50 in the data set on MV4-11 fell in the range of 5 to 10 µM; with MOLM-13, 10 to 20 µM. This compound showed a CC50 at 7 days in data set [2] of 15 to 30 µM. Besides, the pEC50 in data set [1] is under 5.30.
On to `CCS(=O)(=O)Nc1ccc(CN2CCC3(CC2)CN(c2ncnc4ccc(CC(F)(F)F)cc24)C3)cc1` [Compound 7, N-(4-((2-(6-(2,2,2-trifluoroethyl)quinazolin-4-yl)-2,7-diazaspiro[3.5]nonan-7-yl)methyl)phenyl)ethanesulfonamide], for which the CC50 in the data set with MV4-11 fell in the range of 1 to 2.5 µM; in the data set on MOLM-13 it was 1 to 5 µM. In data set [2], this compound came in with a CC50 at 7 days of 5 to 15 µM. Besides, the pEC50 in data set [1] is at least 7.12.
In the case of `CCS(=O)(=O)Nc1ccc(CN2CCC3(CC2)CN(c2ncnc4ccccc24)C3)cc1` [Compound 21, N-(4-((2-(quinazolin-4-yl)-2,7-diazaspiro[3.5]nonan-7-yl)methyl)phenyl)ethanesulfonamide], the pEC50 in data set [1] was under 5.30.
On to `CCS(=O)(=O)Nc1ccc(CN2CCC3(CC2)CN(c2ncnc4ncccc24)C3)cc1` [Compound 24, N-[4-[(2-pyrido[2,3-d]pyrimidin-4-yl-2,7-diazaspiro[3.5]nonan-7-yl)methyl]phenyl]ethanesulfonamide], for which, in data set [1], the pEC50 is under 5.30.
`CCS(=O)(=O)Nc1ccc(CN2CCC3(CC2)CCN(c2ncnc4cc(CC(F)(F)F)ccc24)CC3)cc1` [Compound 2] returned a CC50 in the data set on MV4-11 of over 10 µM. The same compound returned a CC50 at 7 days in data set [2] of 15 to 30 µM. In data set [1], the pEC50 is under 5.30.
Consider `CCS(=O)(=O)Nc1ccc(CN2CCC3(CC2)CN(c2nc(NC)nc4ncccc24)C3)cc1` [Compound 31], for which, in data set [1], the pEC50 is under 5.30.
Consider `CCS(=O)(=O)Nc1ccc(CN2CCC3(CC2)CN(c2ncnc4ccc(CC(F)(F)F)cc24)C3)cc1C(=O)NCCN1CCOCC1` [Compound 92, 2-(ethylsulfonamido)-N-(2-morpholinoethyl)-5-((2-(6-(2,2,2-trifluoroethyl)quinazolin-4-yl)-2,7-diazaspiro[3.5]nonan-7-yl)methyl)benzamide], for which the pEC50 in data set [1] was under 5.30.
Turning to `CCS(=O)(=O)N[C@H]1CC[C@H](CN2CCC3(CC2)CN(c2ncnc4ccc(CCc5nc(C)no5)cc24)C3)CC1` [Compound 63, N-((1R,4R)-4-((2-(6-(2-(3-methyl-1,2,4-oxadiazol-5-yl)ethyl)quinazolin-4-yl)-2,7-diazaspiro[3.5]nonan-7-yl)methyl)cyclohexyl)ethanesulfonamide], the negative-log EC50 (pEC50) in data set [1] was 5.30 to 6.00.
The same measure, in the same setting: the result for `CCS(=O)(=O)Nc1cccc(CN2CCC3(CC2)CN(c2ncnc4ccccc24)C3)c1` [Compound 23, N-(3-((2-(quinazolin-4-yl)-2,7-diazaspiro[3.5]nonan-7-yl)methyl)phenyl)ethanesulfonamide] reads under 5.30; that for `CCS(=O)(=O)N1CCc2cc(CN3CCC4(CC3)CN(c3ncnc5ccc(CC(F)(F)F)cc35)C4)ccc2C1` [Compound 110, 4-(7-((2-(ethylsulfonyl)-1,2,3,4-tetrahydroisoquinolin-6-yl)methyl)-2,7-diazaspiro[3.5]nonan-2-yl)-6-(2,2,2-trifluoroethyl)quinazoline], 6.30 to 7.12.
Turning to `CCS(=O)(=O)N[C@H]1CC[C@H](CN2CCC3(CC2)CCN(c2ncnc4cc(CC(F)(F)F)ccc24)CC3)CC1` [Compound 4, N-((1R,4R)-4-((9-(7-(2,2,2-trifluoroethyl)quinazolin-4-yl)-3,9-diazaspiro[5.5]undecan-3-yl)methyl)cyclohexyl)ethanesulfonamide], the pEC50 in data set [1] was 5.30 to 6.00.
Turning to `CCS(=O)(=O)Nc1ccc(CN2CCC(Nc3ncnc4cc(CC(F)(F)F)ccc34)CC2)cc1` [Compound 33, N-(4-((4-((7-(2,2,2-trifluoroethyl)quinazolin-4-yl)amino)piperidin-1-yl)methyl)phenyl)ethanesulfonamide], the pEC50 in data set [1] was under 5.30.
`CCN(C[C@H]1CC[C@H](NS(=O)(=O)CC)CC1)c1ccc(CN2CCC3(CC2)CN(c2ncnc4ccc(CC(F)(F)F)cc24)C3)cc1` [Compound 100, N-((1R,4R)-4-((ethyl(4-((2-(6-(2,2,2-trifluoroethyl)quinazolin-4-yl)-2,7-diazaspiro[3.5]nonan-7-yl)methyl)phenyl)amino)methyl)cyclohexyl)ethanesulfonamide]: the pEC50 in data set [1] is 5.30 to 6.00.
With `CCS(=O)(=O)NC1CCc2cc(CN3CCC4(CC3)CN(c3ncnc5ccc(CC(F)(F)F)cc35)C4)cc(F)c2C1` (racemic) [Compound 77, rac-(R)-N-(8-fluoro-6-((2-(6-(2,2,2-trifluoroethyl)quinazolin-4-yl)-2,7-diazaspiro[3.5]nonan-7-yl)methyl)-1,2,3,4-tetrahydronaphthalen-2-yl)ethanesulfonamide], the pEC50 in data set [1] is 5.30 to 6.00.
On to `N#Cc1cc(CN2CCC3(CC2)CN(c2ncnc4ccc(CC(F)(F)F)cc24)C3)ccc1F` [Compound 102, 2-fluoro-5-((2-(6-(2,2,2-trifluoroethyl)quinazolin-4-yl)-2,7-diazaspiro[3.5]nonan-7-yl)methyl)benzonitrile], for which, in data set [1], the pEC50 is 5.30 to 6.00.
